# Assay results from US20070105721A1, “Vinylogous 4-Hpyrones and their use in promoting plant growth” (priority 2003, published 2007).
# Assays:
# Melaleuca carrii seeds = test: Seed vigour enhancement (cumulative germination); format: in vivo; details: compound 1a at 100 ppb; FIG. 3
# Method: (§1) For each species, five replicates of 20 seeds were placed on Petri dishes lined with seed germination paper. The Petri dishes were moistened with de-ionised water (control) or 100 ppb compound 1a. All species were incubated in constant darkness at 12/12 hr alternating temperatures of 7/18° C., 13/26° C. or 18/33° C. Germination was scored on radicle emergence and was recorded every 2-3 days until germination had ceased.
# Hakea undulata seeds = test: Seed vigour enhancement (cumulative germination); format: in vivo; details: compound 1a at 100 ppb; FIG. 4
# Method: as §1
structure (smiles),measurement,setting,value
"Cc1c2ccocc-2oc1=O [Compound 1a, 3-Methyl-2H-furo[2,3-c]pyran-2-one]","germination rate (cumulative germination), Melaleuca carrii",Melaleuca carrii seeds,improved germination rate
same,"germination rate (cumulative germination), Hakea undulata",Hakea undulata seeds,improved germination rate
